Measured values from patent US7119073B2, “Peptides and their use as inhibitors of hepatitis C virus ns3 protease” (Istituto Di Ricerche Di Biologia Molecolare P. Angeletti SpA, priority 2001, dated 2006).
pIC50: −log10 of the molar value.

Target: T1, NS3 protease domain complexed to a modified form of the NS4A peptide (Pep4AK) (Hepatitis C virus genotype 1b, UniProt P26663)
T1 construct: NS3 protease domain (residues 1027–1206 of the HCV polyprotein)
Assay: HCV NS3 protease domain/NS4A cofactor peptide assay (Assay B)
Type: biochemical
Settings: Table 1; NS3 protease domain/Pep4AK, 4AB peptide substrate; read-out: Assay B

T1 sequence (P26663 1027-1206, other chains not shown): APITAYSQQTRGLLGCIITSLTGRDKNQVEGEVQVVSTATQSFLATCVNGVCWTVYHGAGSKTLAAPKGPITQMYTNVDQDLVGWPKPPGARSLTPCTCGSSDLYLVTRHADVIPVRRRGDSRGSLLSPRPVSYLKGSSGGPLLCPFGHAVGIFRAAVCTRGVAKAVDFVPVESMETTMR

Row | Compound | pIC50
1 | COC(=O)CCc1ccc(CCNC(=O)C(CS)NC(=O)C(CC(C)C)NC(=O)C(CCC(=O)O)NC(=O)OCC(C)C)cc1 (stereo not drawn) [Compound 155] | > 4.00
2 | CCOC(=O)/C=C/c1ccc(CCNC(=O)[C@H](CS)NC(=O)[C@H](CC(C)C)NC(=O)[C@H](CCC(=O)O)NC(=O)OCC(C)C)cc1 [Compound 157] | > 5.00
3 | CC(C)COC(=O)N[C@@H](CCC(=O)O)C(=O)N[C@@H](CC(C)C)C(=O)N[C@@H](CS)C(=O)NCCc1ccc(/C=C/C(=O)O)cc1 [Compound 158] | > 5.00
4 | CC(C)COC(=O)NC(CCC(=O)O)C(=O)NC(CC(C)C)C(=O)NC(CS)C(=O)NCCc1ccc(S(N)(=O)=O)cc1 (stereo not drawn) [Compound 159] | > 5.00
5 | CC(=O)NS(=O)(=O)c1ccc(CCNC(=O)C(CS)NC(=O)C(CC(C)C)NC(=O)C(CCC(=O)O)NC(=O)OCC(C)C)cc1 (stereo not drawn) [Compound 160] | > 5.00
6 | CC(C)COC(=O)NC(CCC(=O)O)C(=O)NC(CC(C)C)C(=O)NC(CS)C(=O)NCCc1ccc(S(=O)(=O)NC(=O)C(C)C)cc1 (stereo not drawn) [Compound 161] | > 5.00
7 | CC(C)COC(=O)NC(CCC(=O)O)C(=O)NC(CC(C)C)C(=O)NC(CS)C(=O)NCCc1ccc(S(=O)(=O)NC(=O)c2ccccc2)cc1 (stereo not drawn) [Compound 162] | > 5.00
8 | CCCCc1ccnc(C(=O)NS(=O)(=O)c2ccc(CCNC(=O)[C@H](CS)NC(=O)[C@H](CC(C)C)NC(=O)[C@H](CCC(=O)O)NC(=O)OCC(C)C)cc2)c1 [Compound 163] | > 5.00
9 | CC(C)COC(=O)N[C@@H](CCC(=O)O)C(=O)N[C@@H](CC(C)C)C(=O)N[C@@H](CS)C(=O)NCCc1ccc(Cl)cc1Cl [Compound 165] | > 5.00
10 | CC(C)COC(=O)NC(CCC(=O)O)C(=O)NC(CC(C)C)C(=O)NC(CS)C(=O)NCCc1ccc(Cl)c(Cl)c1 (stereo not drawn) [Compound 172] | > 4.00
11 | COc1ccc(OC)c(CCNC(=O)C(CS)NC(=O)C(CC(C)C)NC(=O)C(CCC(=O)O)NC(=O)OCC(C)C)c1 (stereo not drawn) [Compound 174] | > 4.00
12 | COc1cc(CCNC(=O)C(CS)NC(=O)C(CC(C)C)NC(=O)C(CCC(=O)O)NC(=O)OCC(C)C)ccc1O (stereo not drawn) [Compound 175] | > 4.00
13 | COc1ccc(CCNC(=O)C(CS)NC(=O)C(CC(C)C)NC(=O)C(CCC(=O)O)NC(=O)OCC(C)C)cc1Br (stereo not drawn) [Compound 176] | > 4.00
14 | CC(C)COC(=O)NC(C(=O)NC(CC(C)C)C(=O)NC(CC(F)F)C(=O)NCCc1ccc(C(=O)O)cc1Cl)C(C)C (stereo not drawn) [Compound 179] | > 5.00
15 | CC(C)C[C@H](NC(=O)[C@@H](NC(=O)OCC1CCCC1)C(C)C)C(=O)N[C@@H](CS)C(=O)NCCc1ccc(C(=O)O)cc1Cl [Compound 181] | > 5.00
16 | CC(C)CC(NC(=O)C(NC(=O)OC1CCS(=O)(=O)CC1)C(C)C)C(=O)NC(CS)C(=O)NCCc1ccc(C(=O)O)cc1Cl (stereo not drawn) [Compound 182] | > 4.00
17 | CC(C)C[C@H](NC(=O)[C@@H](NC(=O)OCC1CCOC1)C(C)C)C(=O)N[C@@H](CS)C(=O)NCCc1ccc(C(=O)O)cc1Cl (stereo partly drawn) [Compound 183] | > 5.00
18 | CC(C)CCOC(=O)NC(C(=O)NC(CC(C)C)C(=O)NC(CS)C(=O)NCCc1ccc(C(=O)O)cc1Cl)C(C)C (stereo not drawn) [Compound 184] | > 5.00
19 | COC(=O)c1ccc(CCNC(=O)C(CS)NC(=O)C(CC(C)C)NC(=O)C(CCC(=O)O)NC(=O)OCC(C)C)c(F)c1 (stereo not drawn) [Compound 185] | > 4.00
20 | CC(C)COC(=O)NC(CCC(=O)O)C(=O)NC(CC(C)C)C(=O)NC(CS)C(=O)NCCc1ccc(C(=O)O)cc1F (stereo not drawn) [Compound 186] | > 6.00
21 | CC(C)COC(=O)NC(CCC(=O)O)C(=O)NC(CC(C)C)C(=O)NC(CC(F)F)C(=O)NCCc1c(F)cc(C(=O)O)cc1F (stereo not drawn) [Compound 187] | > 6.00
22 | CC(C)COC(=O)N[C@@H](CCC(=O)O)C(=O)N[C@@H](CC(C)C)C(=O)N[C@@H](CS)C(=O)NCCc1cn(CC(=O)O)c2ccccc12 [Compound 188] | > 5.00
23 | CC(C)COC(=O)NC(CCC(=O)O)C(=O)NC(CC(C)C)C(=O)NC(CS)C(=O)NCCc1c[nH]c2ccccc12 (stereo not drawn) [Compound 189] | > 4.00
24 | CC(C)COC(=O)N[C@@H](CCC(=O)O)C(=O)N[C@@H](CC(C)C)C(=O)N[C@@H](CS)C(=O)NCCc1ccsc1 [Compound 190] | > 5.00
